What follows are molecules tested against T1, Human V2 Vasopressin Receptor (Homo sapiens, UniProt P30518) (assay: Binding to Membranes of Mouse Fibroblast Cell Line (LV-2) Transfected with the cDNA Expressing the Human V2 Vasopressin Receptor). Settings: LV-2 cell membranes, human V2; read-out: V2 IC50 (**).
T1 construct: expressed in transfected cells; host or cells: mouse fibroblast cell line LV-2
T1 sequence (P30518 whole entry): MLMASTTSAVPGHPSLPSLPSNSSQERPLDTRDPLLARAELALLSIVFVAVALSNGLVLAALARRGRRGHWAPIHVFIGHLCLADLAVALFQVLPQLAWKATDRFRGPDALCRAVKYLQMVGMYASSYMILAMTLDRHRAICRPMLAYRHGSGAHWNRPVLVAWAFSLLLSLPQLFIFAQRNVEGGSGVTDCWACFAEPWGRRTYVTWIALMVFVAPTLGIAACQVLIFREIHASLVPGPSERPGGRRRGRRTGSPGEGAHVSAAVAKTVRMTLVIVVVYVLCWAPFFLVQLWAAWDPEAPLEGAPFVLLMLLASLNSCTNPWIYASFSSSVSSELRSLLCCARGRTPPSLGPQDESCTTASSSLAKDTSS

Row | Compound | IC50 [nM]
1 | O=C(Nc1ccc(C(=O)N2Cc3cccn3Cc3sccc32)cc1)c1ccc(Cl)cc1Cl [Example 274, N-(4-(5H-pyrrolo[1,2-a]thieno-[3,2-e][1,4]diazepin-4(10H)-ylcarbonyl)phenyl]-2,4-dichloro-benzamide] | 31
2 | O=C(Nc1ccc(C(=O)N2Cc3cccn3Cc3ccccc32)c(Cl)c1)c1ccccc1C(F)(F)F [Example 528, N-[4-(5H-pyrrolo[2,1-c][1,4]benzodiazepin-10(11H)-ylcarbonyl]-3-chlorophenyl]-2-(trifluoromethyl)benzamide] | 6
3 | Cc1cccc(C(=O)Nc2ccc(C(=O)N3Cc4cccn4Cc4ccccc43)c(Cl)c2)c1C [Example 525, N-[4-(5H-pyrrolo[2,1-c][1,4]benzodiazepin-10(11H)-ylcarbonyl]-3-chlorophenyl]-2,3-dimethylbenzamide] | 0.42
4 | O=C(Nc1ccc(C(=O)N2Cc3cccn3Cc3ccccc32)c(Cl)c1)c1ccc(F)cc1Cl [Example 527, N-[4-(5H-pyrrolo[2,1-c][1,4]benzodiazepin-10(11H)-ylcarbonyl]-3-chlorophenyl]-4-fluoro-2-chlorobenzamide] | 0.67
5 | COc1cc(C(=O)N2Cc3cccn3Cc3ccccc32)ccc1NC(=O)c1ccccc1C [Example 477, N-[4-(5H-pyrrolo[2,1-c][1,4]benzodiazepin-10(11H)-ylcarbonyl)-2-methoxy-phenyl]-2-methylbenzamide] | 3.2
6 | O=C(Nc1ccc(C(=O)N2Cc3cccn3Cc3ccccc32)cc1)c1cc([N+](=O)[O-])ccc1Cl [Example 480, N-[4-(5H-pyrrolo[2,1-c][1,4]benzodiazepin-10(11H)-ylcarbonyl)phenyl]-2-chloro-5-nitrobenzamide] | 26
7 | COc1cc(C(=O)N2Cc3cccn3Cc3ccccc32)ccc1NC(=O)c1ccc(Cl)cc1Cl [Example 478, N-[4-(5H-pyrrolo[2,1-c][1,4]benzodiazepin-10(11H)-ylcarbonyl)-2-methoxy-phenyl]-2,4-dichlorobenzamide] | 1.9
8 | O=C(Nc1ccc(C(=O)N2Cc3ccnn3Cc3ccccc32)cc1)c1ccc(Cl)cc1Cl [Example 217, N-[4-(4H-Pyrazolo[5,1-c][1,4]benzo-diazepin-5(10H)-ylcarbonyl)phenyl]-2,4-dichlorobenzamide] | 10

Source: US5624923A, “Tricyclic diazepine vasopressin antagonists and oxytocin antagonists” (priority 1995, dated 1997)
